Test results reported in patent US8461328B2, “Tricyclic heterocyclic compounds, compositions and methods of use thereof” (Genentech, Inc., priority 2010, dated 2013).
pKi: −log10 of the molar value.

Columns and labels:
Format in all cases: biochemical
JAK1 = molecular target: T1, JAK1 (Homo sapiens, UniProt P23458); test: JAK1 inhibition (Table 4); conditions: read-out: JAK1 Ki
T1 construct: made in house; host or cells: SF9 insect cells (baculovirus)

JAK2 = molecular target: T2, JAK2 (Homo sapiens, UniProt O60674); test: JAK2 inhibition (Table 4); conditions: read-out: JAK2 Ki
T2 construct: made in house; host or cells: SF9 insect cells (baculovirus)
T2 sequence (O60674 812-1132): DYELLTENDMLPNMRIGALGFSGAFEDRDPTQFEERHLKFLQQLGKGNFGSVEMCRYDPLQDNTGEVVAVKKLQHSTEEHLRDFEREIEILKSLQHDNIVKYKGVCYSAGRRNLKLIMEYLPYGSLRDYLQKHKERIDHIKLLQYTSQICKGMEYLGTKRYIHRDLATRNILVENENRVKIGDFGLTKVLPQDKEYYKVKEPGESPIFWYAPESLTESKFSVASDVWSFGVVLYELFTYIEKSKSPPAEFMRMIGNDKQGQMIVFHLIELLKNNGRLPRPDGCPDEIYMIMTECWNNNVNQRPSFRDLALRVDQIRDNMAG

TYK2 = molecular target: T3, TYK2 (Homo sapiens, UniProt P29597); test: TYK2 inhibition (Table 4)
T3 construct: made in house; host or cells: SF9 insect cells (baculovirus)
T3 sequence (P29597 873-1187): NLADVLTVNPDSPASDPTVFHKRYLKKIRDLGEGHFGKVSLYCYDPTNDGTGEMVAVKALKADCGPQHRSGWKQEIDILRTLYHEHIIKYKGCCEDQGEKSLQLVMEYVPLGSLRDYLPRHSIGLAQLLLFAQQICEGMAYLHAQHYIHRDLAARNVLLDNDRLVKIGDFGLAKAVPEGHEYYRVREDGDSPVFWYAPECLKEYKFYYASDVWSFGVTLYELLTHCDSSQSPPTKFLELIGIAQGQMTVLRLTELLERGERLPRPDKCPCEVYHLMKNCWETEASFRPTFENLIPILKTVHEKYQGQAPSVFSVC

JAK3 = molecular target: T4, JAK3 (Homo sapiens, UniProt P52333); test: JAK3 inhibition (Table 4); conditions: read-out: JAK3 Ki
T4 construct: made in house; host or cells: SF9 insect cells (baculovirus)
T4 sequence (P52333 783-1124): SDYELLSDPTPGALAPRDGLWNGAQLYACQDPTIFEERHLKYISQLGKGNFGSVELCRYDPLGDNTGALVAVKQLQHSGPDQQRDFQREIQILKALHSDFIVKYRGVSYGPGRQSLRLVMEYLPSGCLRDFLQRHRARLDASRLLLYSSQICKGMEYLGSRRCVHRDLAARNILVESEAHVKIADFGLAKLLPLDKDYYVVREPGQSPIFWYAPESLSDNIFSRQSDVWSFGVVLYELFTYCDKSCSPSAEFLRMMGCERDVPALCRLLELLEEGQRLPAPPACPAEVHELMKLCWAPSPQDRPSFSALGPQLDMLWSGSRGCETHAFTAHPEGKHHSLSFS

T1 sequence (P23458 852-1154): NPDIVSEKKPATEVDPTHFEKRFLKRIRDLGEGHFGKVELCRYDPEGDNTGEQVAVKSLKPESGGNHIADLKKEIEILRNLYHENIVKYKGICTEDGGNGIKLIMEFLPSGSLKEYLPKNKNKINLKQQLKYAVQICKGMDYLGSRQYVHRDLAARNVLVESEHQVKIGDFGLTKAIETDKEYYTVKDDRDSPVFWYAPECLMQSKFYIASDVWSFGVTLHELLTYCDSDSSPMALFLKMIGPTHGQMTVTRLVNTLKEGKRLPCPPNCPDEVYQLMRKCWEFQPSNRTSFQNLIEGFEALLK

Compound	pKi (JAK1)	pKi (JAK2)	pKi (TYK2)	pKi (JAK3)
CS(=O)(=O)NCc1nc2cnc3[nH]ccc3c2n1C1CCNCC1(F)F (racemic) [Example 945, N-[1-(3,3-Difluoro-piperidin-4-yl)-1,6-dihydro-1,3,5,6-tetraaza-as-indacen-2-ylmethyl]-methanesulfonamide]	8.50	7.46	7.49	7.69
CC(=O)NCCc1nc2cnc3[nH]ccc3c2n1C1CCCCC1 [Example 677, N-[2-(1-Cyclohexyl-1,6-dihydro-1,2,3,5,6-tetraaza-as-indacen-2-yl)-ethyl]-acetamide]	8.61	7.53	7.56	7.48
N#CCCN1CCC(n2c(CCNC(=O)c3ccccc3)nc3cnc4[nH]ccc4c32)CC1 [Example 380, N-(2-{1-[1-(2-Cyano-ethyl)-piperidin-4-yl]-1,6-dihydro-1,3,5,6-tetraaza-as-indacen-2-yl}-ethyl)-benzamide]	8.40	7.44	6.85	7.20
NC1CC(n2cnc3cnc4[nH]ccc4c32)C1 (stereo not shown) [Example 320, 3-(6H-1,3,5,6-Tetraaza-as-indacen-1-yl)-cyclobutylamine]	7.25	6.74	6.22	5.93
Cc1nc2cnc3[nH]ccc3c2n1C1CCN(CC(C)O)CC1 (stereo not shown) [Example 701, 1-[4-(2-Methyl-6H-1,2,3,5,6-tetraaza-as-indacen-1-yl)-piperidin-1-yl]-propan-2-ol]	7.80	7.22	6.70	6.63
CN1CCN(S(=O)(=O)NCCc2nc3cnc4[nH]ccc4c3n2C2CCCCC2)CC1 [Example 511, 4-Methyl-piperazine-1-sulfonic acid [2-(1-cyclohexyl-1,6-dihydro-1,3,5,6-tetraaza-as-indacen-2-yl)-ethyl]-amide]	8.28	7.31	7.52	6.76
CN1CCC[C@H]1CN1CCC(n2cnc3cnc4[nH]ccc4c32)CC1 [Example 177, 1-[1-((S)-1-Methyl-pyrrolidin-2-ylmethyl)-piperidin-4-yl]-1,6-dihydro-1,2,3,5,6-tetraaza-as-indacene]	7.38	6.84	6.28	5.85
NC(=O)Cc1nc2cnc3[nH]ccc3c2n1C1CCN(S(=O)(=O)C2CC2)CC1 [Example 382, 2-[1-(1-Cyclopropanesulfonyl-piperidin-4-yl)-1,6-dihydro-1,3,5,6-tetraaza-as-indacen-2-yl]-acetamide]	6.87	6.23	6.13	6.27
O=C1CC(n2cnc3cnc4[nH]ccc4c32)CCN1Cc1ccccc1 (racemic) [Example 129, 1-Benzyl-4-(6H-1,2,3,5,6-tetraaza-as-indacen-1-yl)-piperidin-2-one]	7.36	7.24	6.51	6.27
O=S(=O)(Cc1ccccc1)N1CC[C@@H](n2cnc3cnc4[nH]ccc4c32)C1 [Example 435, 1-((R)-1-Phenylmethanesulfonyl-pyrrolidin-3-yl)-1,6-dihydro-1,3,5,6-tetraaza-as-indacene]	7.49	7.55	6.58	6.65
CC1CN(Cc2ccccc2)CCC1n1cnc2cnc3[nH]ccc3c21 (racemic) [Example 149, Racemic cis 1-(1-Benzyl-3-methyl-piperidin-4-yl)-1,6-dihydro-1,2,3,5,6-tetraaza-as-indacene]	9.01	8.79	7.73	7.69
CC(C)(C)OC(=O)NC1CCCC(n2cnc3cnc4[nH]ccc4c32)C1 (single isomer, unassigned) [Example 474, [3-(6H-1,3,5,6-Tetraaza-as-indacen-1-yl)-cyclohexyl]-carbamic acid tert-butyl ester]	8.68	8.36	7.33	7.71
CCN1CC[C@@H](n2c(CCNS(=O)(=O)C(C)C)nc3cnc4[nH]ccc4c32)[C@@H](F)C1 [Example 810, Propane-2-sulfonic acid {2-[1-((3S,4R)-1-ethyl-3-fluoro-piperidin-4-yl)-1,6-dihydro-1,3,5,6-tetraaza-as-indacen-2-yl]-ethyl}-amide]	8.24	7.35	6.41	6.74
O=C(Cc1nc2cnc3[nH]ccc3c2n1C1CCNCC1)NC1CCCC1 [Example 265, N-Cyclopentyl-2-(1-piperidin-4-yl-1,6-dihydro-1,3,5,6-tetraaza-as-indacen-2-yl)-acetamide]	7.53	6.39	6.24	7.18
CC(=O)NCCOC(=O)N[C@H]1CC[C@H](n2cnc3cnc4[nH]ccc4c32)CC1 [Example 599, Trans[4-(6H-1,2,3,5,6-tetraaza-as-indacen-1-yl)-cyclohexyl]-carbamic acid 2-acetylamino-ethyl ester]	8.11	7.58	6.92	6.73

The remaining lines, values ahead:

pKi (JAK1)	pKi (JAK2)	pKi (TYK2)	pKi (JAK3)	Compound
8.03	6.99	7.34	7.12	C[C@@H](O)c1nc2cnc3[nH]ccc3c2n1[C@@H]1COCCC1(F)F [Example 1012, (R)-1-[1-((R)-4,4-Difluoro-tetrahydro-pyran-3-yl)-1,6-dihydro-1,3,5,6-tetraaza-as-indacen-2-yl]-ethanol]
7.11	5.88	5.99	5.93	COCC(=O)N1CCC(n2c(Cc3conc3C)nc3cnc4[nH]ccc4c32)CC1 [Example 119, 2-Methoxy-1-{4-[2-(3-methyl-isoxazol-4-ylmethyl)-6H-1,2,3,5,6-tetraaza-as-indacen-1-yl]-piperidin-1-yl}-ethanone]
8.56	8.49	7.75	8.03	N#CC1(C(=O)N2CCC[C@@H](n3cnc4cnc5[nH]ccc5c43)C2)CCC1 [Example 316, 1-[(R)-3-(6H-1,3,5,6-Tetraaza-as-indacen-1-yl)-piperidine-carbonyl]-cyclobutanecarbonitrile]
8.38	8.21	7.54	8.03	N#CCC(=O)N1CCCCC(n2cnc3cnc4[nH]ccc4c32)C1 (racemic) [Example 988, 3-Oxo-3-[3-(6H-1,3,5,6-tetraaza-as-indacen-1-yl)-azepan-1-yl]-propionitrile]
7.75	6.88	7.09	7.10	C[C@@H](O)c1nc2cnc3[nH]ccc3c2n1[C@H]1COCCC1(F)F [Example 1011, (R)-1-[1-((S)-4,4-Difluoro-tetrahydro-pyran-3-yl)-1,6-dihydro-1,3,5,6-tetraaza-as-indacen-2-yl]-ethanol]
8.25	7.36	7.08	6.52	CC(C)N[C@H]1CC[C@H](n2cnc3cnc4[nH]ccc4c32)CC1 [Example 214, Isopropyl-[4-(6H-1,2,3,5,6-tetraaza-as-indacen-1-yl)-cyclohexyl]-amine]
8.34	8.12	7.92	8.23	OC1CCCC(n2cnc3cnc4[nH]ccc4c32)C1 (single isomer, unassigned) [Example 562, 3-(6H-1,3,5,6-Tetraaza-as-indacen-1-yl)-cyclohexanol]
8.14	7.45	7.75	6.86	C[C@@H](O)c1nc2cnc3[nH]ccc3c2n1[C@H]1CC[C@H](N2CC[C@@H](C#N)C2)CC1 [Example 610, Trans (R)-1-{4-[2-((R)-1-hydroxy-ethyl)-6H-1,2,3,5,6-tetraaza-as-indacen-1-yl]-cyclohexyl}-pyrrolidine-3-carbonitrile]
7.67	7.12	6.35	7.32	CC(=O)N1CCC(c2nc3cnc4[nH]ccc4c3n2C2CCN(CCC#N)CC2)C1 (racemic) [Example 390, 3-{4-[2-(1-Acetyl-pyrrolidin-3-yl)-6H-1,3,5,6-tetraaza-as-indacen-1-yl]-piperidin-1-yl}-propionitrile]
7.43	6.75	6.42	6.82	NC1CCC(n2cnc3cnc4[nH]ccc4c32)C1 (racemic) [Example 294, 3-(6H-1,3,5,6-Tetraaza-as-indacen-1-yl)-cyclopentylamine]
8.78	8.40	8.15	7.62	CC1(O)CCC(n2cnc3cnc4[nH]ccc4c32)CC1 (stereo not drawn) [Example 993, Cis-1-Methyl-4-(6H-1,3,5,6-tetraaza-as-indacen-1-yl)-cyclohexanol]
6.85	6.60	5.56	7.65	CC(C)NC(=O)C(C)c1nc2cnc3[nH]ccc3c2n1C1CCN(CCC#N)CC1 (racemic) [Example 172, Racemic 2-{1-[1-(2-Cyano-ethyl)-piperidin-4-yl]-1,6-dihydro-1,2,3,5,6-tetraaza-as-indacene-2-yl}-N-isopropyl-propionamide]
8.22	7.14	7.57	6.92	C[C@@H](O)c1nc2cnc3[nH]ccc3c2n1C1CCCC(C#N)C1 (mixture of isomers) [Example 648, Racemic cis 3-[2-((R)-1-Hydroxy-ethyl)-6H-1,2,3,5,6-tetraaza-as-indacen-1-yl]-cyclohexanecarbonitrile]
